Entries after “also recorded” stand apart in the source; their conditions may differ. Peptide text beside a SMILES is read from it. * marks the point of attachment. Stearoyl = CCCCCCCCCCCCCCCCCC(=O)*
How the values were obtained:
[1] = system: influenza virus A/PR/8/34 (H1N1); test: Plaque assay on MDCK cells, inhibition of influenza virus infection (H1N1); type: cell-based, influenza type A virus; conditions: for IC50: H1N1, plaque assay on MDCK cells; for anti-influenza virus activity in vitro: MDCK plaque assay
Procedure: (§1) Inhibition of influenza virus infection was determined by a plaque assay on MDCK cells. The MDCK cells in 6-well plates were incubated with 0.2 mL of influenza virus A/PR/8/34 solutions (100 to 200 pfu; pfu denotes plaque-forming units; subtype H1N1) or influenza virus A/Victria/1/75 solutions (100-200 pfu; subtype H3N2) each containing C18-D1, S2 (H-ARLPRTMVHPKPAQP-NH2), C18-S2 (stearoyl-ARLPRTMVHPKPAQP-NH2), or D1 (H-GLAMAPSVGHVRQHG-NH2). After incubation at 37° C. under 5% CO2 for 30 minutes, the supernatant was removed, and the cells were washed with PBS. 2 mL (per well) of 2×MEM+BSA containing 0.6% agarose, 0.01% of O-diethylaminoethyl cellulose dextran, 0.1% NaHCO3, and 0.01 μg/mL of acetyl trypsin was added, and the cells were incubated for two days. Viable cells were stained with a crystal violet solution (1 mg/mL in 20% ethanol), and the number of plaques was counted. The maximum infection activity (100%) was defined as the number of plaques in the case of the absence of C18-D1. The IC50 value (50% inhibitory concentration) of C18-D1 was obtained from the plot between log [f/(1−f)] and log [C18-D1], wherein f is the percent infection activity. The IC50 values of S2, C18-S2, and D1 were calculated in a similar manner.

influenza virus (H1N1) = system: influenza virus (H1N1); design: species or system mice; conditions: mouse
[2] = system: influenza virus A/Victria/1/75 (H3N2); test: Plaque assay on MDCK cells, inhibition of influenza virus infection (H3N2); type: cell-based, influenza type A virus
Procedure: as §1

[3] = Critical micelle concentration by NPN fluorescence in PBS; type: physicochemical; conditions: PBS (pH 7.5), 1 μM NPN
Procedure: The critical micelle concentration (CMC) of the purified C18-D1 was determined in the following manner. PBS (pH 7.5) containing 1 μM of N-phenyl-1-naphthylamine (hereinafter abbreviated as “NPN”) was prepared. A C18-D1 peptide stock solution (1 mM) was serially diluted to final concentrations of […], 10, and 30 μM. These solutions were excited by a wavelength of 350 nm, and the fluorescence intensity (FI) at 450 nm was measured. The difference in FI between each diluted peptide solution and PBS alone was plotted as the ordinate, and the peptide solutions were plotted as the abscissa. The concentration at the intersection of the high concentration curve and the low concentration curve was determined. The critical micelle concentration (CMC) of the intersection was 1.3 μM.

[4] = target: hemagglutinin of influenza type A virus A/PR/8/34 (H1N1) (influenza A virus A/PR/8/34 (H1N1)) (UniProt P03452); test: cell-based or functional assay
[5] = target: hemagglutinin of influenza type A virus A/Victria/1/75 (H3N2) (influenza A virus A/Victria/1/75 (H3N2)); test: cell-based or functional assay

Q: With “H-GLAMAPSVGHVRQHG-NH2 [D1-NH2, H-GLAMAPSVGHVRQHG-NH2]” as the molecule, how does the IC50 [1] read?
A: > 100 µM

Q: Which IC50 [1] does the source give for “H-ARLPRTMVHPKPAQP-NH2 [S2-NH2, H-ARLPRTMVHPKPAQP-NH2]” here?
A: > 100 µM

Q: Which results are given for CCCCCCCCCCCCCCCCCC(=O)N[C@@H](C)C(=O)N[C@@H](CCCNC(=N)N)C(=O)N[C@@H](CC(C)C)C(=O)N1CCC[C@H]1C(=O)N[C@@H](CCCNC(=N)N)C(=O)N[C@H](C(=O)N[C@@H](CCSC)C(=O)N[C@H](C(=O)N[C@@H](Cc1c[nH]cn1)C(=O)N1CCC[C@H]1C(=O)N[C@@H](CCCCN)C(=O)N1CCC[C@H]1C(=O)N[C@@H](C)C(=O)N[C@@H](CCC(N)=O)C(=O)N1CCC[C@H]1C(N)=O)C(C)C)[C@@H](C)O [C18-S2, stearoyl ARLPRTMVHPKPAQP-NH2] (Stearoyl-ARLPRTMVHPKPAQP-NH2)?
A: IC50 [1]: 10 µM; anti-influenza virus activity in vitro [1]: potent anti-influenza virus effect in vitro; also recorded: excellent anti-influenza virus activity; in vivo effect on influenza virus infection (influenza virus (H1N1)): ineffective in vivo; also recorded: caused early mortality

Q: With CCCCCCCCCCCCCCCCCC(=O)NCC(=O)N[C@@H](CC(C)C)C(=O)N[C@@H](C)C(=O)N[C@@H](CCSC)C(=O)N[C@@H](C)C(=O)N1CCC[C@H]1C(=O)N[C@@H](CO)C(=O)N[C@H](C(=O)NCC(=O)N[C@@H](Cc1c[nH]cn1)C(=O)N[C@H](C(=O)N[C@@H](CCCNC(=N)N)C(=O)N[C@@H](CCC(N)=O)C(=O)N[C@@H](Cc1c[nH]cn1)C(=O)NCC(N)=O)C(C)C)C(C)C [C18-D1, (stearoyl)-Gly Leu Ala Met Ala Pro Ser Val Gly His Val Arg Gln His Gly-NH2] (Stearoyl-GLAMAPSVGHVRQHG-NH2) as the molecule, how does the IC50 ([2]; H3N2, plaque assay on MDCK cells) read?
A: 7.5 µM

Q: What about the “infection of MDCK cells with H3N2” value ([2]; in vitro, MDCK plaque assay) of the same molecule?
A: inhibited

Q: What about the “critical micelle concentration (CMC)” value [3] of the same molecule?
A: 1.3 µM

Q: And the IC50 [1]?
A: 11 µM

Q: What about the “anti-influenza virus activity in vitro” value [1] of the same molecule?
A: inhibited

Q: What about the “anti-influenza virus activity in vitro” value ([1]; listed as 018-D1) of the same molecule?
A: excellent anti-influenza virus activity

Q: And the mice survived (influenza virus (H1N1); in vivo)?
A: ≥ 80%

Q: What does the source list for Stearoyl-GLAMAPSVGHVRQHG-NH2 [C18-D1 (stearoyl-Gly Leu Ala Met Ala Pro Ser Val Gly His Val Arg Gln His Gly-NH2), as self-assembly]?
A: IC50 (plaque assay on MDCK cells, inhibition of influenza virus infection) [4]: 11 µM; IC50 (plaque assay on MDCK cells, inhibition of influenza virus infection) [5]: 7.5 µM

Source: US20110152178A1 (priority 2008, published 2011)
